Test results reported in patent publication US5468728A, “Use of orally absorbable motilin preparations to enhance motility of digestive tract” (Sanwa Kagaku Kenkyusho Co., Ltd., priority 1991, dated 1995).

Tested on: intestinal tracts
Test: Contraction of the intestinal tracts in dogs by the balloon method, intravenous and nasal administration
Assay type: in vivo
Text: L-leucine-13-motilin (A) and L-leucine-13-motilin-homoserin (B) were administrated to dogs through an intravenous route ([…]) by the ballon method to determine their activities on the contraction of the intestinal tracts, and the action of the surface active agent on promoting the absorption of the active substances administrated through a nasal administration was estimated in terms of percentage relative to the activity--100%-- of L-leucine-13-motilin administrated through an intravenous route on the contraction.
L-leucine-13-motilin-homoserine and L-leucine-13-motilin were each dissolved in purified water to prepare an aqueous solution, which was then aseptically poured into a vial in such a way that it contained the active substance in an amount of 1 mg when calculated as polypeptide. Each vial was finally sealed together and freeze-dried. For use, this vial is dissolved in physiological saline for injection.

[1] = Intravenous Administration (2.0 μg/kg/hr)
[2] = Nasal Administration (100 μg/kg/hr), Control = injection preparation without surface active agent

Substance	activity on the contraction of the intestinal tracts, percentage relative to L-leucine-13-motilin intravenous (100%) [1] [%]	activity on the contraction of the intestinal tracts, percentage relative to L-leucine-13-motilin intravenous (100%) [2]
L-leucine-13-motilin [A]	100 ± 0	No activity found
L-leucine-13-motilin-homoserine [B]	115 ± 5	≤ 30%
